Literature values, collected in patent publication US20110165241A1, “BAZEDOXIFENE FORMULATIONS WITH ANTIOXIDANTS” (Wyeth LLC, priority 2009, published 2011).

How the values were obtained:
[1] = test system: MCF-7 cell line (human breast cancer cell line)
[2] = test system: ovariectomized rat model of osteopenia; details: in vivo
uterine response = details: in vivo

Structure (SMILES): Cc1c(-c2ccc(O)cc2)n(Cc2ccc(OCCN3CCCCCC3)cc2)c2ccc(O)cc12 [bazedoxifene, 1-[4-(2-azepan-1-yl-ethoxy)-benzyl]-2-(4-hydroxy-phenyl)-3-methyl-1H-indol-5-ol]
- estrogen receptor activity in MCF-7 cells [1]: behaves as an estrogen antagonist
- effect on bone loss and cholesterol [2]: estrogen agonist-like effect in preventing bone loss and reducing cholesterol
- stimulation of uterine response (uterine response): little or no stimulation of uterine response
